Values after ≈ are worked out from the molar mass of the structure shown. Read-outs that look alike come from different tables or passages of the source.
Columns and labels:
[1] = test system: S. aureus ATCC 25923; test: Antibacterial activity, post-exposure on preformed 18-h-old biofilms; assay type: cell-based, Staphylococcus aureus; details: for Average inhibition %, biofilms viability / Average inhibition %, planktonic cells viability / inhibition at 25 µM / inhibition at 50 µM / inhibition at 100 µM / inhibition at 200 µM: ± SD; for inhibition at 25 µM / inhibition at 50 µM / inhibition at 100 µM / inhibition at 200 µM: Staphylococcus aureus; for inhibition at 25 µM: ATCC25923, 25 µM; for inhibition at 50 µM: ATCC25923, 50 µM; for inhibition at 100 µM: ATCC25923, 100 µM; for inhibition at 200 µM: ATCC25923, 200 µM
In short: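 Biofilms grown 18 h without compound, medium then replaced and compound added for a further 24 h. Planktonic OD and resazurin (20 μM final) fluorescence (ex 560/em 590 nm) read; washed biofilms stained with 20 μM resazurin 30 min at 37 °C, then ethanol-fixed and crystal violet-stained, absorbance 595 nm.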

[2] = test system: P. aeruginosa ATCC 9027; test: Antibacterial activity, pre-exposure; assay type: cell-based, Pseudomonas aeruginosa; details: for Average inhibition %, biofilms viability / Average inhibition %, planktonic cells viability / inhibition at 50 µM / inhibition at 100 µM / inhibition at 150 µM / inhibition at 200 µM: P. aeruginosa ATCC 9027, pre-exposure, ± SD; for inhibition at 50 µM / inhibition at 100 µM / inhibition at 150 µM / inhibition at 200 µM: ATCC9027
In short: (§1)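 Growth prevention was tested by adding compounds together with the inoculum. Plates were incubated 18 h at 37 °C. Viability was read by resazurin fluorescence and biomass by crystal violet absorbance at 595 nm.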

[3] = test system: A. baumannii NCTC 13423; test: Antibacterial activity, pre-exposure; assay type: cell-based, Acinetobacter baumannii; details: for Average inhibition %, biofilms viability / Average inhibition %, planktonic cells viability / inhibition at 10 µM / inhibition at 15 µM / inhibition at 25 µM / inhibition at 50 µM: A. baumannii NCTC 13423, pre-exposure, ± SD; for inhibition at 10 µM / inhibition at 15 µM / inhibition at 25 µM / inhibition at 50 µM / MIC: Acinetobacter baumannii, NCTC13423
In short: as §1

[4] = test system: S. aureus ATCC 25923; test: Antibacterial activity, pre-exposure (planktonic cells and biofilm formation); assay type: cell-based, Staphylococcus aureus; details: for MIC / inhibition at 5 µM / inhibition at 10 µM / inhibition at 15 µM / inhibition at 25 µM: Staphylococcus aureus, ATCC25923; for inhibition at 5 µM / inhibition at 10 µM / inhibition at 15 µM / inhibition at 25 µM / Average inhibition %, biofilms viability / Average inhibition %, planktonic cells viability: pre-exposure, ± SD
In short: as §1

[5] = read-out: Average inhibition %, biofilms biomass
[6] = read-out: Average inhibition %, planktonic cells turbidity
[7] = 10 µM, read-out: Average inhibition %, biofilms biomass
[8] = 10 µM, read-out: Average inhibition %, planktonic cells turbidity
[9] = 15 µM, read-out: Average inhibition %, biofilms biomass
[10] = 15 µM, read-out: Average inhibition %, planktonic cells turbidity
[11] = 25 µM, read-out: Average inhibition %, biofilms biomass
[12] = 25 µM, read-out: Average inhibition %, planktonic cells turbidity

CCCCCCCCc1ccc(C(O)CC(N)(CO)CO)cc1 (stereo not drawn) [Compound 54, 3-Amino-3-(hydroxymethyl)-1-(4-octylphenyl)butane-1,4-diol]
Average inhibition %, biofilms viability ([1]; 25 µM): 11.2 ± 0.8% | Average inhibition %, planktonic cells viability ([1]; 25 µM): 15 ± 26.1% | Average inhibition %, biofilms viability ([1]; 50 µM): 23.6 ± 12.7% | Average inhibition %, planktonic cells viability ([1]; 50 µM): 0 ± 0% | Inhibition of viability and total biomass of preformed biofilms ([1]; 100 μM): at least 70% | Average inhibition %, biofilms viability ([1]; 100 µM): 82.1 ± 27.3% | Average inhibition %, planktonic cells viability ([1]; 100 µM): 97.9 ± 3.4% | Average inhibition %, biofilms viability ([1]; 200 µM): 99.8 ± 0.2% | Average inhibition %, planktonic cells viability ([1]; 200 µM): 100.1 ± 0.2% | inhibition at 25 µM [1, 5]: 44 ± 14.9% | inhibition at 25 µM [1, 6]: 5.1 ± 6.4% | inhibition at 50 µM [1, 5]: 55.3 ± 3% | inhibition at 50 µM [1, 6]: 17.4 ± 3.4% | inhibition at 100 µM [1, 5]: 83.5 ± 19% | inhibition at 100 µM [1, 6]: 82.6 ± 4.7% | inhibition at 200 µM [1, 5]: 86.4 ± 3.9% | inhibition at 200 µM [1, 6]: 83.6 ± 3.7% | Average inhibition %, biofilms viability ([2]; 50 µM): 22.2 ± 26.9% | Average inhibition %, planktonic cells viability ([2]; 50 µM): 74 ± 11.2% | Average inhibition %, biofilms viability ([2]; 100 µM): 98.9 ± 1.5% | Average inhibition %, planktonic cells viability ([2]; 100 µM): 99.6 ± 0% | Average inhibition %, biofilms viability ([2]; 150 µM): 97.5 ± 3.9% | Average inhibition %, planktonic cells viability ([2]; 150 µM): 99.2 ± 0.8% | Average inhibition %, biofilms viability ([2]; 200 µM): 99.7 ± 0.1% | Average inhibition %, planktonic cells viability ([2]; 200 µM): 99.7 ± 0.1% | MIC ([2]; Pseudomonas aeruginosa, ATCC9027, pre-exposure, Inactive = no activity up to 200 μM, > = some inhibition but no MIC reached, read-out: MIC P. aeruginosa ATCC 9027): 50 to 100 µM (≈ 16.2 to 32.3 µg/mL) | MIC ([2]; Pseudomonas aeruginosa, ATCC9027, supplementary molecular formula strings sheet, read-out: MIC (P. aeruginosa)): 100 µM (≈ 32.3 µg/mL) | inhibition at 50 µM ([2]; Pseudomonas aeruginosa, 50 µM, read-out: Average inhibition %, biofilms biomass): 46.4 ± 22% | inhibition at 50 µM ([2]; Pseudomonas aeruginosa, 50 µM, read-out: Average inhibition %, planktonic cells turbidity): 76.9 ± 11.6% | inhibition at 100 µM ([2]; Pseudomonas aeruginosa, 100 µM, read-out: Average inhibition %, biofilms biomass): 96.7 ± 1.1% | inhibition at 100 µM ([2]; Pseudomonas aeruginosa, 100 µM, read-out: Average inhibition %, planktonic cells turbidity): 98.2 ± 0.5% | inhibition at 150 µM ([2]; Pseudomonas aeruginosa, 150 µM, read-out: Average inhibition %, biofilms biomass): 90.9 ± 7.2% | inhibition at 150 µM ([2]; Pseudomonas aeruginosa, 150 µM, read-out: Average inhibition %, planktonic cells turbidity): 94.4 ± 1.4% | inhibition at 200 µM ([2]; Pseudomonas aeruginosa, 200 µM, read-out: Average inhibition %, biofilms biomass): 94.1 ± 1.7% | inhibition at 200 µM ([2]; Pseudomonas aeruginosa, 200 µM, read-out: Average inhibition %, planktonic cells turbidity): 94.1 ± 1.3% | MIC ([2]; pre-exposure, Inactive = no activity up to 200 μM, > = some inhibition but no MIC reached, read-out: MIC P. aeruginosa ATCC 9027): 100 µM (≈ 32.3 µg/mL) | Average inhibition %, biofilms viability ([3]; 10 µM): 0 ± 0% | Average inhibition %, planktonic cells viability ([3]; 10 µM): 4.7 ± 2.4% | Average inhibition %, biofilms viability ([3]; 15 µM): 1.2 ± 2.1% | Average inhibition %, planktonic cells viability ([3]; 15 µM): 6.4 ± 4.2% | Average inhibition %, biofilms viability ([3]; 25 µM): 6.1 ± 6.8% | Average inhibition %, planktonic cells viability ([3]; 25 µM): 3.3 ± 4.4% | Average inhibition %, biofilms viability ([3]; 50 µM): 100.2 ± 0.8% | Average inhibition %, planktonic cells viability ([3]; 50 µM): 99.4 ± 0.2% | inhibition at 10 µM [3, 7]: 2.3 ± 4.1% | inhibition at 10 µM [3, 8]: 0% | inhibition at 15 µM [3, 9]: 1.5 ± 1.3% | inhibition at 15 µM [3, 10]: 0% | inhibition at 25 µM [3, 11]: 6.1 ± 8.1% | inhibition at 25 µM [3, 12]: 0% | inhibition at 50 µM ([3]; 50 µM, read-out: Average inhibition %, biofilms biomass): 81.2 ± 8.8% | inhibition at 50 µM ([3]; 50 µM, read-out: Average inhibition %, planktonic cells turbidity): 99 ± 1% | MIC ([3]; pre-exposure, Inactive = no activity up to 50 μM, > = some inhibition but no MIC reached, read-out: MIC A. baumannii NCTC 13423): 50 µM (≈ 16.2 µg/mL) | MIC ([3]; supplementary molecular formula strings sheet, read-out: MIC (A. baumannii)): 50 µM (≈ 16.2 µg/mL) | MIC ([4]; lowest concentration with no visible growth (>90% inhibition of turbidity and viability of planktonic cells), 18 h, read-out: MIC S. aureus ATCC 25923): 25 µM (≈ 8.09 µg/mL) | inhibition at 5 µM ([4]; 5 µM, read-out: Average inhibition %, biofilms biomass): 21.2 ± 18.4% | inhibition at 5 µM ([4]; 5 µM, read-out: Average inhibition %, planktonic cells turbidity): 34.1 ± 32.1% | inhibition at 10 µM [4, 7]: 23.7 ± 8.7% | inhibition at 10 µM [4, 8]: 38.3 ± 27% | inhibition at 15 µM [4, 9]: 39.3 ± 23.6% | inhibition at 15 µM [4, 10]: 44.1 ± 23.3% | inhibition at 25 µM [4, 11]: 93.7 ± 4.1% | inhibition at 25 µM [4, 12]: 98.8 ± 1% | MIC ([4]; read-out: MIC (S. aureus)): 25 µM (≈ 8.09 µg/mL) | Average inhibition %, biofilms viability ([4]; 5 µM): 21.2 ± 4.7% | Average inhibition %, planktonic cells viability ([4]; 5 µM): 11.9 ± 20.6% | Average inhibition %, biofilms viability ([4]; 10 µM): 28.3 ± 15.2% | Average inhibition %, planktonic cells viability ([4]; 10 µM): 10.2 ± 17.7% | Average inhibition %, biofilms viability ([4]; 15 µM): 28.6 ± 10.1% | Average inhibition %, planktonic cells viability ([4]; 15 µM): 8.5 ± 14.7% | Average inhibition %, biofilms viability ([4]; 25 µM): 99.5 ± 0.6% | Average inhibition %, planktonic cells viability ([4]; 25 µM): 99.8 ± 0.1%

Reference: paper PMC8296573, “Synthesis and Biological Evaluation of Fingolimod Derivatives as Antibacterial Agents” (ACS Omega, 2021)
